Experimental data from ChEMBL document CHEMBL2074280, “Acceleration of MRP-associated efflux of rhodamine 123 by genistein and related compounds” (Br J Cancer, 1996).

What was measured:
Format in all cases: functional, cell-based
[1] = target: ATP-dependent translocase ABCB1 (Homo sapiens, UniProt P08183); experiment: TP_TRANSPORTER: increase in DNR intracellular accumulation (DNR: 0.5 uM, Genistein: 200 uM) in H69/LX4 cells; details: h69/lx4, 200 µM
[2] = target: T1, Multidrug resistance-associated protein 1 (Homo sapiens, UniProt P33527); experiment: TP_TRANSPORTER: increase in DNR intracellular accumulation (DNR: 0.5 uM, Genistein: 200 uM) in MOR-R cells
[3] = target: T1, Multidrug resistance-associated protein 1; experiment: TP_TRANSPORTER: increase in DNR intracellular accumulation (DNR: 0.5 uM, Genistein: 200 uM) in COR-L23/R cells

Measured: Activity

T1 sequence (P33527 whole entry): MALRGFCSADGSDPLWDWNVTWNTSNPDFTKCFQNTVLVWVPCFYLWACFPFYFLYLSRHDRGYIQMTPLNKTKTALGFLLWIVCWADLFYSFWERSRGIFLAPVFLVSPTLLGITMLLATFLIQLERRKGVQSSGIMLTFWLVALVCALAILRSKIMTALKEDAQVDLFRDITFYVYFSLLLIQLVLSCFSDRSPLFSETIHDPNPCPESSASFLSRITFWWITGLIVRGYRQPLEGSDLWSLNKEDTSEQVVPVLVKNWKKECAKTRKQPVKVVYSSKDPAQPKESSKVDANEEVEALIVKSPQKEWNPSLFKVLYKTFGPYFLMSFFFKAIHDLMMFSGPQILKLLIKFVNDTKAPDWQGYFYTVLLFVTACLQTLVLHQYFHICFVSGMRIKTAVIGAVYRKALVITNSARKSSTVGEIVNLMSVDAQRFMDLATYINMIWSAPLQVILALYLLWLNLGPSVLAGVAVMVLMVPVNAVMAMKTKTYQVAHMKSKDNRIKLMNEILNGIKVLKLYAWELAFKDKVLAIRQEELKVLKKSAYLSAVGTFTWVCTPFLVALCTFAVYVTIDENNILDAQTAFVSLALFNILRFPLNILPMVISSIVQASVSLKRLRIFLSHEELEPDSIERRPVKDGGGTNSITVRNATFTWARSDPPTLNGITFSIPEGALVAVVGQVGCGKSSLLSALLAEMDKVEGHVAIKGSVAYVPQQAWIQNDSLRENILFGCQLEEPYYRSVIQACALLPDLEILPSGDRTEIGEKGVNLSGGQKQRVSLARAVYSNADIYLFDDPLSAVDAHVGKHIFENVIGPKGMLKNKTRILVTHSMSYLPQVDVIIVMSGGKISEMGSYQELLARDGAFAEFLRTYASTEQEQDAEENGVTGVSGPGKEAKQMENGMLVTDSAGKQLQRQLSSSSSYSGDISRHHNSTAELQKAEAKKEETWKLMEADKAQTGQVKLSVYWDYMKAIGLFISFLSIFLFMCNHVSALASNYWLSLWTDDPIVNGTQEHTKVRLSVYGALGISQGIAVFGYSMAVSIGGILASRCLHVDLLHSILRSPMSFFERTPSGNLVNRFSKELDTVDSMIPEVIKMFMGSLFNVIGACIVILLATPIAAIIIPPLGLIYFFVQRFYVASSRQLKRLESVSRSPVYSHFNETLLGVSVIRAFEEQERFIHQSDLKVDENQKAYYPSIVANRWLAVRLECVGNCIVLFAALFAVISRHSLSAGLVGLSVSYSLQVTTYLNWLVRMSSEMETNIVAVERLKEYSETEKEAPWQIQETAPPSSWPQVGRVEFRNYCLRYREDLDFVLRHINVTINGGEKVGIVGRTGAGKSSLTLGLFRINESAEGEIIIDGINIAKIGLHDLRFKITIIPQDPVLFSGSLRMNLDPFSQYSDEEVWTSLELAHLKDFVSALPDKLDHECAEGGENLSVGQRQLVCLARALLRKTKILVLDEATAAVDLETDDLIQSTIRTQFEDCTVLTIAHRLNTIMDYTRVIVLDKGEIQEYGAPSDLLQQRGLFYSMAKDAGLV
ATP-dependent translocase ABCB1, sequence (P08183 whole entry): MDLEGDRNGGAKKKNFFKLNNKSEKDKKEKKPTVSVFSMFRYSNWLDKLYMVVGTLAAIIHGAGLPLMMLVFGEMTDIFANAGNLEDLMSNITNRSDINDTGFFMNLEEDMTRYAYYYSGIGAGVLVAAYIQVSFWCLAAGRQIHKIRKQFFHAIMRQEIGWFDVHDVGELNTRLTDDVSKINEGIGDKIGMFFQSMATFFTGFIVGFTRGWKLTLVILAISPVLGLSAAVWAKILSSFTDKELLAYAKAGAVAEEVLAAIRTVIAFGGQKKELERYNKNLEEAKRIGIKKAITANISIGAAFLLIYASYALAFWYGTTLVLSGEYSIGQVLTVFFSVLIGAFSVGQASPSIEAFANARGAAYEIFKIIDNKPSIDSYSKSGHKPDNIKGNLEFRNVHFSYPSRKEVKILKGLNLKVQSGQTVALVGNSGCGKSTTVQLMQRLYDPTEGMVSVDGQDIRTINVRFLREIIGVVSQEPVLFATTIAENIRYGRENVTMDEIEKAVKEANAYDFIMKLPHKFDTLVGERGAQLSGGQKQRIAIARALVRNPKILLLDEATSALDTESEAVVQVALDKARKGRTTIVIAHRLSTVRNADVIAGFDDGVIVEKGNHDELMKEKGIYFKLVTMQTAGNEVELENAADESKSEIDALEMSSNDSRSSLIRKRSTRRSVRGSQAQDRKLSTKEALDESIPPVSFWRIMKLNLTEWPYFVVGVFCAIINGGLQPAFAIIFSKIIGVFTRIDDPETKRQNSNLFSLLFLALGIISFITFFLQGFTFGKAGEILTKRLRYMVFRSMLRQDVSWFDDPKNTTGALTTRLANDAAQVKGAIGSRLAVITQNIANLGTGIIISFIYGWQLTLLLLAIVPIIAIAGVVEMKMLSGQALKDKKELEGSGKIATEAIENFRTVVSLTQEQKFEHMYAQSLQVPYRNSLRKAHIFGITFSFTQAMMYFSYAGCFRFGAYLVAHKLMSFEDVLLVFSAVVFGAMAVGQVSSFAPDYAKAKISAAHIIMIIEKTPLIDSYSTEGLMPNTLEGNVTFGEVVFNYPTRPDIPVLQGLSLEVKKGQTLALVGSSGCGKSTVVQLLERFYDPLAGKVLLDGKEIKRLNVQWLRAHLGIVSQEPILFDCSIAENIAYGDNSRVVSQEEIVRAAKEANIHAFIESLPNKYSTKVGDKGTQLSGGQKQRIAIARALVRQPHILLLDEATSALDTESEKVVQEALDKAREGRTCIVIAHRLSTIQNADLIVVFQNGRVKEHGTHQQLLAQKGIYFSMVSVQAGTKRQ

O=c1c(-c2ccc(O)cc2)coc2cc(O)cc(O)c12 [GENISTEIN]
inhibitor [+]: all assays above
